Experimental data as given in patent US9593305B2, “Differentiation of pluripotent stem cells” (Janssen Biotech, Inc., priority 2008, dated 2017).

Columns and labels:
[1] = test system: H1 human embryonic stem cells; experiment: Secondary assay: panel of compounds with growth factor combinations and muscimol, no activin A (Example 6, Table 5); type: cell-based
Experimental: Clusters of H1 human embryonic stem cells were grown on reduced growth factor […]™ (Invitrogen; Cat #356231)-coated tissue culture plastic. Cells were passaged using collagenase (Invitrogen; Cat #17104-019) treatment and gentle scraping, washed to remove residual enzyme, and plated with even dispersal at a ratio of 1:1 (surface area) on reduced growth factor […]™-coated 96-well black plates (Packard ViewPlates; PerkinElmer; Cat #6005182) using volumes of 100 μl/well. Cells were allowed to attach as clusters and then recover log phase growth over a 1 to 3 day period, feeding daily with MEF-conditioned medium supplemented with 8 ng/ml bFGF (R&D Systems; Cat #233-FB). Plates were maintained at 37° C., 5% CO2 in a humidified box throughout the duration of the assay. Stocks of growth factors purchased from R&D Systems were EGF (Cat #236-EG), FGF4 (Cat #235-F4), PDGF-A (Cat #221-AA), PDGF-D (Cat #1159-SB), PDGF-A/B (Cat #222-AB), and VEGF (Cat #293-VE). […] All growth factors were solubilized in PBS with 0.1% BSA (Sigma; Cat #A7888) and stored frozen at −80° C. […] Cat #D2650) and stored frozen at −80° C. Compounds were available as 5 mM stocks in 96-well plate format, solubilized in 100% DMSO and stored at −80° C. Compounds were further diluted to an intermediate concentration of 0.2 mM in 50 mM HEPES (Invitrogen; Cat #15630-080), 20% DMSO and stored at 4° C. All growth factors and inhibitors were prepared in a deep well, 96-well polypropylene plate, diluted to 5× intermediate stocks in DMEM:F12 base medium at the beginning of assay and stored at 4° C. A secondary screening assay was conducted, testing in triplicate and feeding on alternate days over the four-day assay timeframe. Assays were initiated by aspirating culture medium from each well followed by three washes in PBS to remove residual growth factors and serum. Test volumes of 80 μl per well were added back containing DMEM:F12 base medium (Invitrogen; Cat #11330-032) supplemented with 0.625% FCS (HyClone; […] All remaining growth factors were tested at a final assay concentration of 50 ng/ml (EGF, FGF4, PDGF-A, PDGF-A/B, VEGF). […] At the conclusion of four-days of culture, assay plates were washed twice with PBS, fixed with 4% paraformaldehyde (Alexis Biochemical; Cat #ALX-350-011) at room temperature for 20 minutes, then washed three times with PBS and permeabilized with 0.5% Triton X-100 (Sigma; Cat #T8760-2) for 20 minutes at room temperature. Cells were washed again three times with PBS and blocked with 4% chicken serum (Invitrogen; Cat #16110082) in PBS for 30 minutes at room temperature. Primary antibody (goat anti-human SOX17; R&D Systems; cat #AF1924) was diluted 1:100 in 4% chicken serum and added to each well for one hour at room temperature. Alexa Fluor 488 conjugated secondary antibody (chicken anti-goat IgG; Molecular Probes; Cat #AZ1467) was diluted 1:200 in PBS and added to each sample well after washing three times with PBS. To counterstain nuclei, 4 μg/ml Hoechst 33342 (Invitrogen; Cat #H3570) was added for ten minutes at room temperature. Plates were washed once with PBS and left in 100 μl/well PBS for imaging. Imaging was performed using an IN Cell Analyzer 1000 (GE Healthcare) utilizing the 51008bs dichroic for cells stained with Hoechst 33342 and Alexa Fluor 488. Exposure times were optimized from positive control wells and from untreated negative control wells stained with secondary antibody alone. Images from 15 fields per well were acquired to compensate for any cell loss during the bioassay and subsequent staining procedures. […] Segmentation for the nuclei was determined based on grayscale levels (baseline range 100-300) and nuclear size. Averages and standard deviations were calculated for each replicate data set. Total SOX17 protein expression was reported as total intensity or integrated intensity, defined as total fluorescence of the cell multiplied by the area of the cell. […]

[2] = test system: H1 human embryonic stem cells; experiment: Analog screening with GDF-8 and growth factor/agonist pool (Example 8, Tables 7 and 8); type: cell-based; design: Cell Number, % of positive control / Sox17 Expression, % of positive control: tested at 2.5 µM
Experimental: Briefly, clusters of H1 human embryonic stem cells were grown on reduced growth factor […]™ (Invitrogen; Cat #356231)-coated tissue culture plastic. Cells were passaged using collagenase (Invitrogen; Cat #17104-019) treatment and gentle scraping, washed to remove residual enzyme, and plated with even dispersal at a ratio of 1:1 (surface area) on reduced growth factor […]™-coated 96-well black plates (Packard ViewPlates; PerkinElmer; Cat #6005182) using volumes of 100 μl/well. Cells were allowed to attach as clusters and then recover log phase growth over a 1 to 3 day period, feeding daily with MEF conditioned medium supplemented with 8 ng/ml bFGF (R&D Systems; Cat #233-FB). Plates were maintained at 37° C., 5% CO2 in a humidified box throughout the duration of assay. Growth factors purchased from R&D Systems were EGF (Cat #236-EG), FGF4 (Cat #235-F4), PDGF-A (Cat #221-AA), PDGF-D (Cat #1159-SB), PDGF-A/B (Cat #222-AB). […] Screening was conducted using a library of compounds that were made available as 5 mM stocks in 96-well plate format, solubilized in 100% DMSO (Sigma; Cat #D2650) and stored at −80° C. The compounds were further diluted to an intermediate concentration of 0.2 mM in 50 mM HEPES (Invitrogen; Cat #15630-080), 20% DMSO and stored at 4° C. Test conditions were performed in single wells, feeding on alternate days over a four-day assay period. Primary screening assays were initiated by aspirating culture medium from each well followed by three washes in PBS (Invitrogen; Cat #14190) to remove residual growth factors and serum. On the first day of assay, test volumes of 200 μl per well were added back containing DMEM:F12 base medium (Invitrogen; Cat #11330-032) supplemented with 0.5% FCS (HyClone; […] Cat #1324-WN) plus 2.5 μM compound. All remaining growth factors were tested at a final assay concentration of 50 ng/ml (EGF, FGF4, PDGF-A, PDGF-A/B, VEGF) with the exception of GDF-8 tested at 25 ng/ml. […] Cat #120-14). […] All remaining growth factors were tested at a final assay concentration of 50 ng/ml (EGF, FGF4, PDGF-A, PDGF-A/B, VEGF) with the exception of GDF-8 tested at 25 ng/ml. […] Cat #120-14). Negative control samples contained DMEM:F12 base medium supplemented with 2% FCS. […] At the conclusion of four-days of culture, assay plates were washed twice with PBS (Invitrogen; Cat #14190), fixed with 4% paraformaldehyde (Alexis Biochemical; Cat #ALX-350-011) at room temperature for 20 minutes, then washed three times with PBS and permeabilized with 0.5% Triton X-100 (Sigma; Cat #T8760-2) for 20 minutes at room temperature. Cells were washed again three times with PBS and blocked with 4% chicken serum (Invitrogen; Cat #16110082) in PBS for 30 minutes at room temperature. Primary antibody (goat anti-human SOX17; R&D Systems; Cat #AF1924) was diluted 1:100 in 4% chicken serum and added to each well for one hour at room temperature. Alexa Fluor 488 conjugated secondary antibody (chicken anti-goat IgG; Molecular Probes; Cat #AZ1467) was diluted 1:200 in PBS and added to each sample well after washing three times with PBS. To counterstain nuclei, 4 μg/ml Hoechst 33342 (Invitrogen; Cat #H3570) was added for ten minutes at room temperature. Plates were washed once with PBS and left in 100 μl/well PBS for imaging. Imaging was performed using an IN Cell Analyzer 1000 (GE Healthcare) utilizing the 51008bs dichroic for cells stained with Hoechst 33342 and Alexa Fluor 488. Exposure times were optimized from positive control wells and from untreated negative control wells stained with secondary antibody alone. Images from 15 fields per well were acquired to compensate for any cell loss during the bioassay and subsequent staining procedures. […] Segmentation for the nuclei was determined based on gray-scale levels (baseline range 100-300) and nuclear size. Averages and standard deviations were calculated for each replicate data set. […]

[3] = Plate 1, compound + EGF, FGF, PDGF-A, VEGF, PDGF-D, muscimol, GDF8
[4] = Plate 1, compound + EGF, FGF, PDGF-A, VEGF, PDGF-D, muscimol, GDF8, positive control Activin A/Wnt3a
[5] = Table 8: hits with greater than 25% activity of the positive control, with GDF-8 and growth factors/agonists
[6] = EGF, FGF, PDGF-A, VEGF, PDGF-D, muscimol, GDF8
[7] = Plate 2, compound + EGF, FGF, PDGF-A, VEGF, PDGF-D, muscimol, GDF8
[8] = Plate 2, compound + EGF, FGF, PDGF-A, VEGF, PDGF-D, muscimol, GDF8, positive control Activin A/Wnt3a

| Compound | Cell Number, % of positive control [2, 5] | Sox17 Expression, % of positive control [2, 5] | Sox17 Expression, Average Total Intensity [2, 5] | Cell Number, Average Total Cell Number [2, 7] | Sox17 Expression, Average Total Intensity [2, 7] | Cell Number, % of positive control [2, 8] | Sox17 Expression, % of positive control [2, 8] | also measured |
| --- | --- | --- | --- | --- | --- | --- | --- | --- |
| 9-Methyl-2,3,4,5,7,8,9,10-octahydro-16H-17,21-(azeno)-11,15-(metheno)pyrido[3,2-g][1,3,5,9,13,17]hexaazacyclotricosin-6(1H)-one [Compound 39] | – | – | – | – | – | – | – | SOX17 expression, % of positive control response ([1]; with EGF+FGF4+PDGF-A+VEGF, no activin A): 31 % of positive control response; SOX17 expression, % of positive control response ([1]; with EGF+FGF4+PDGF-AB, no activin A): 68 % of positive control response; SOX17 expression, % of positive control response ([1]; with EGF+FGF4, no activin A): 77 % of positive control response |
| O=C1NCCCc2cncc(c2)-c2ncnc(n2)Nc2cc(Cl)cc(c2)CN2CCC[C@@H]12 [Compound 36, (18S)-10-Chloro-3,5,7,14,20,26,30-heptaazapentacyclo[22.3.1.1˜2,6˜0.1˜8,12˜0.0˜14,18˜]triaconta-1(28), 2(30), 3,5,8(29), 9,11,24,26-nonaen-19-one] | 59.5 % of positive control | 37.8 % of positive control | 9.47E+07 | – | – | – | – | Cell Number, Average Total Cell Number [2, 3]: 7964; Sox17 Expression, Average Total Intensity [2, 3]: 9.47E+07; Cell Number, % of positive control [2, 4]: 59.5 % of positive control; Sox17 Expression, % of positive control [2, 4]: 37.8 % of positive control |
| CCN1CC(=O)NCCCc2cccc(c2)-c2ncnc(n2)Nc2cc(Cl)cc(c2)C1 [Compound 16, 10-Chloro-14-ethyl-3,5,7,14,17,27-hexaazatetracyclo[19.3.1.1˜2,6˜1˜8,12˜]heptacosa-1(25), 2(27), 3,5,8(26), 9,11,21,23-nonaen-16-one] | – | – | – | 9064 | 1.48E+08 | 57.3 % of positive control | 51.8 % of positive control | Cell Number, % of positive control [2, 6]: 62.0%; Cell Number, Average Total Cell Number [2, 6]: 8303; Sox17 Expression, % of positive control [2, 6]: 36.7%; Sox17 Expression, Average Total Intensity [2, 6]: 9.20E+07 |
| O=C1NCCCc2cncc(c2)-c2ncnc(n2)Nc2cc(Cl)cc(c2)CN2CCCC1C2 (stereo not shown) [Compound 38, 5-Chloro-1,8,10,12,16,22,30-heptaazapentacyclo[22.2.2.1˜3,7˜0.1˜9,13˜0.1˜14,18˜]hentriaconta-3(31), 4,6,9(30), 10,12,14(29), 15,17-nonaen-23-one] | 61.0 % of positive control | 86.2 % of positive control | 2.46E+08 | 9650 | 2.46E+08 | 61.0 % of positive control | 86.2 % of positive control | – |
